Test [1] has as its target T1, H. pylori urease (HPU) (Helicobacter pylori, UniProt P69996).
T1 construct: HPU was prepared as previously described; made in house
The test can be described thus: Urease inhibition test (modified Berthelot method). The settings on record: HPU 0.25 mg/mL; 20 min preincubation 37°C, pH 7.5; read-out: IC50. The class given is biochemical. As for the experimental part:
(§1) HPU was prepared as previously described. The standard urease assay mixture included 150 mM urea in 20 mM HEPES buffer (pH 7.5). After addition of small aliquots of enzyme-containing solution of urease, the assay ran for 20 min. The enzymatic activity was evaluated spectrophotometrically by detecting the ammonia concentration at 595 nm according to the modified Berthelot (phenol-hypochlorite) method. Urease activity was estimated with JBU as a standard, the specific activity of HPU was determined to be 17.0 U/mg. One unit of urease activity was defined as 1 μmol of ammonia released per min at 25°C. The amount of protein was determined by commercial Bradford Protein Assay Kit with BSA as a standard. The amount of ammonia released was decided from a standard curve. The activity of uninhibited urease was defined as the control activity of 100%.
(§2) Reaction mixtures comprising 0.25 mg/mL HPU or JBU and different concentrations of Pal or AHA at the volume ratio of 1:1, were incubated at 37°C in 20 mM HEPES buffer (pH 7.5) in the absence of urea. The reactions were initiated by mixing the urease and the inhibitor. The preincubation mixture was withdrawn at 20 min and immediately transferred into the standard assay mixtures for urease residual activity determination. Inhibition rate (%) was calculated following the formula: I % = (1-activity with inhibitors/activity without inhibitors) × 100%. The IC50 was expressed as the concentration of inhibitor that decreased urease activity by 50% and calculated by plotting the percent of inhibition. The experiments were triply performed.

The target in test [2] is T2, jack bean urease (JBU) (Canavalia ensiformis, UniProt P07374).
T2 construct: Urease from jack bean (Canavalia ensiformis, JBU); purchased Sigma-Aldrich (St Louis, MO, USA) type III (catalogue number not given)
T2 sequence (P07374 whole entry, looked up): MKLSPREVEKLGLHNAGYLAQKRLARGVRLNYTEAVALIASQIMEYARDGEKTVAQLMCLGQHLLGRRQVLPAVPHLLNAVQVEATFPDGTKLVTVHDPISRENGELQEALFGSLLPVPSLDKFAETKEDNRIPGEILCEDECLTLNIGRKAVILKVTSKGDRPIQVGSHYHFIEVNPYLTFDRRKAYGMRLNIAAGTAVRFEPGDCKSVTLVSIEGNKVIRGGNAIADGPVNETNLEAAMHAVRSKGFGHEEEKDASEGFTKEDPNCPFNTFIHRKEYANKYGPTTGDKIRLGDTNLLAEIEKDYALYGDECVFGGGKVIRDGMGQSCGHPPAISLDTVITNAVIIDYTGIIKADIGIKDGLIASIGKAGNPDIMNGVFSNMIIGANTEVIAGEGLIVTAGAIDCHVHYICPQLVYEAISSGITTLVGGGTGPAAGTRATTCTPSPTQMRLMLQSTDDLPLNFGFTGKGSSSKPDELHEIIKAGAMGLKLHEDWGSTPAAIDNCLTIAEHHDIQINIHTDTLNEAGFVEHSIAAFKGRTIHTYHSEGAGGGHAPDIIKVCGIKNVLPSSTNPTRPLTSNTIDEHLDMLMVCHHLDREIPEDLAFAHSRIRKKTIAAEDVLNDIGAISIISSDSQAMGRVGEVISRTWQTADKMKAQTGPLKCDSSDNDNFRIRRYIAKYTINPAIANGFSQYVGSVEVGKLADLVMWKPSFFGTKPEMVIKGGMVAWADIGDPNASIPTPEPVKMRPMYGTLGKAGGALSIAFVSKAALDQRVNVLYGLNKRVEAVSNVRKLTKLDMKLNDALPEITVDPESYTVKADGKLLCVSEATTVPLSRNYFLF
The test can be described thus: Urease inhibition test (modified Berthelot method). The test is classed as biochemical. The settings on record: JBU 0.25 mg/mL; 20 min preincubation 37°C, pH 7.5; read-out: IC50. The procedure: as §1, §2

The target in test [3] is T1, H. pylori urease (HPU). In words: biochemical. The settings on record: read-out: Residual urease activity (percent of control), Fig 4A HPU, Pal 0.5 mM, thiols 1.25 mM, replicates. The procedure:
(§3) For the protection with thiols-containing compounds, the mixture consisting of 0.25 mg/mL urease (HPU or JBU), 0.5 mM Pal (for both HPU and JBU) and 1.25 mM thiols (DTT, GSH and L-cys) was incubated for 5, 10, 20, and 40 min at 37°C, respectively. The control sample instead of the protectors contained a proper volume of respective buffer.

Test [4] addresses T2, jack bean urease (JBU). In words: biochemical. The following applies: read-out: Residual urease activity (percent of control), Fig 4B JBU, Pal 0.5 mM, thiols 1.25 mM, replicates. As for the experimental part: as §3
Test [5] concerns the target T1, H. pylori urease (HPU). In words: biochemical. The class given is biochemical. The following applies: read-out: Residual urease activity (percent of control), Fig 5A HPU, thiols 1.25 mM, Pal 0.5 mM, 20+20 min. The procedure:
(§4) The reaction mixture consisted of 0.25 mg/mL HPU or JBU, 0.5 mM Pal (for both HPU and JBU), and 1.25 mM thiols (DTT, GSH, or L-cys) in 20 mM HEPES buffer (pH 7.5). The components of the incubation mixture were mixed according to three procedures: (1) Urease was added to the mixture after a 20-min co-incubation of Pal with thiol. (2) Pal was added to the mixture after a 20-min co-incubation of urease with thiol. (3) Thiols were added to the mixture after a 20-min co-incubation of urease with Pal. The incubation mixture containing all components was incubated for further 20 min and the activity of urease was determined. The experiments were triply performed.

Test [6] deals with T2, jack bean urease (JBU). The test can be described thus: biochemical. The test is classed as biochemical. The settings on record: read-out: Residual urease activity (percent of control), Fig 5B JBU, thiols 1.25 mM, Pal 0.5 mM, 20+20 min. As for the experimental part:
as §4

This passage reports IC50 and activity results from article PMC5207512, “Inhibition of Helicobacter pylori and Its Associated Urease by Palmatine: Investigation on the Potential Mechanism” (PLoS ONE, 2017).

Like-named read-outs stand apart in the source and are kept apart here.

T1 sequence (P14916 whole entry): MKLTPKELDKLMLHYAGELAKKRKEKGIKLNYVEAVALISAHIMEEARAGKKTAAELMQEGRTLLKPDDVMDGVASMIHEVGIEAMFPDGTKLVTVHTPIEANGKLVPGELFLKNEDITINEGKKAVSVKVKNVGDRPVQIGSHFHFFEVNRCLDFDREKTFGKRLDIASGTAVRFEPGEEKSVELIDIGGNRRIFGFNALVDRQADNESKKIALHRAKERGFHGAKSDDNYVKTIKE
T1 sequence (P69996 whole entry): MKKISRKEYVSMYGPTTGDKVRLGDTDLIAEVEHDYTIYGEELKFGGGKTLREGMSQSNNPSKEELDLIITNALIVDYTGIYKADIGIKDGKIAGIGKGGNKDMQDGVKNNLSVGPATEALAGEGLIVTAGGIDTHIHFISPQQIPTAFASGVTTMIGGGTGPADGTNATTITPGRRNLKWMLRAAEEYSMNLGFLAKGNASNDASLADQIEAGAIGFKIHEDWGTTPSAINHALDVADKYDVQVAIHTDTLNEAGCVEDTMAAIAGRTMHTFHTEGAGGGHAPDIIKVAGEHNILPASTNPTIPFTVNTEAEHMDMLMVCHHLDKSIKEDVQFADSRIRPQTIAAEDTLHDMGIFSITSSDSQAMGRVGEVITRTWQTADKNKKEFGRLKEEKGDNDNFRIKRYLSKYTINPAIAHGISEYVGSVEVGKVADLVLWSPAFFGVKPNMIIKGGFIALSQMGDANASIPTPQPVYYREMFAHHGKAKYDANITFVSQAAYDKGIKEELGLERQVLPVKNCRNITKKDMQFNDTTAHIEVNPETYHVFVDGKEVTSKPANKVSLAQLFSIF

Take `CC(=O)NO` [AHA, Acetohydroxamic acid]: the results for the half-maximal inhibitory concentration (IC50) at H. pylori urease (HPU) [1] and at jack bean urease (JBU) [2] were 70 ± 10 µM and 20 µM, respectively.
`N[C@@H](CCC(=O)N[C@@H](CS)C(=O)NCC(=O)O)C(=O)O` [GSH, glutathione]: the activity at 1250 µM on H. pylori urease (HPU) [3] (5 min, 5 min incubation) worked out at 72.8%; at H. pylori urease (HPU) [3] (10 min, 10 min incubation) it was 90.4%; on H. pylori urease (HPU) [3] (20 min, 20 min incubation), 94.7%; at H. pylori urease (HPU) [3] (40 min, 40 min incubation), 97.5%; at jack bean urease (JBU) [4] (5 min, 5 min incubation), 129%; on jack bean urease (JBU) [4] (10 min, 10 min incubation) it was 130%. The activity at 1250 µM is 129% on jack bean urease (JBU) [4] (20 min, 20 min incubation); 146% on jack bean urease (JBU) [4] (40 min, 40 min incubation); 90.2% on H. pylori urease (HPU) [5] (order (Protector+Pal)+urease); 85.2% on H. pylori urease (HPU) [5] (order (urease+Pal)+Protector); 86.2% at H. pylori urease (HPU) [5] (order (urease+Protector)+Pal); 139% on jack bean urease (JBU) [6] (order (Protector+Pal)+urease). Moreover, the activity at 1250 µM at jack bean urease (JBU) [6] (order (urease+Pal)+Protector) was 140%.
As for `N[C@@H](CS)C(=O)O` [L-Cys, L-cysteine], the activity at 1250 µM on H. pylori urease (HPU) [3] (5 min, 5 min incubation) is 118%; at H. pylori urease (HPU) [3] (10 min, 10 min incubation) it was 107%; at H. pylori urease (HPU) [3] (20 min, 20 min incubation), 109%; on H. pylori urease (HPU) [3] (40 min, 40 min incubation), 112%; at jack bean urease (JBU) [4] (5 min, 5 min incubation), 102%; on jack bean urease (JBU) [4] (10 min, 10 min incubation), 109%. Also, the activity at 1250 µM on jack bean urease (JBU) [4] (20 min, 20 min incubation) was found to be 117%; at jack bean urease (JBU) [4] (40 min, 40 min incubation), 150%; on H. pylori urease (HPU) [5] (order (Protector+Pal)+urease), 83.2%; at H. pylori urease (HPU) [5] (order (urease+Pal)+Protector), 82.4%; at H. pylori urease (HPU) [5] (order (urease+Protector)+Pal) it was 105%; at jack bean urease (JBU) [6] (order (Protector+Pal)+urease), 147%. Also, the activity at 1250 µM on jack bean urease (JBU) [6] (order (urease+Protector)+Pal) was 146%.

For orientation: IC50 means the concentration at which inhibition is half-maximal.
